In brackets after ≈: the same amount, converted by molar mass. Several values for one entry are separate records, joined by “and”; a condition that tells them apart may be missing. Equal values may be shown once. Read-outs that look alike come from different tables or passages of the source.

One assay has as its system C. parvum. Briefly: C. parvum growth inhibition. It is filed as cell-based, Cryptosporidium parvum. The settings on record: read-out: (J) C. parvum EC50.
The subject of assay [1] is S. aureus MSSA (ATCC 29213). As to the kind of experiment: MIC susceptibility testing. It is filed as cell-based, Staphylococcus aureus. Conditions: S. aureus ATCC 29213; for MIC: Staphylococcus aureus, read-out: (F) S. aureus (ATCC 29213) MIC.
The next assay has as its system T. cruzi. As to the kind of experiment: T. cruzi growth inhibition. It is filed as cell-based, Trypanosoma cruzi. The settings on record: read-out: (E) T. cruzi EC50.
The next assay deals with T1, MetRS (T. brucei) (Trypanosoma brucei brucei, UniProt Q38C91).
T1 sequence (Q38C91 1-773): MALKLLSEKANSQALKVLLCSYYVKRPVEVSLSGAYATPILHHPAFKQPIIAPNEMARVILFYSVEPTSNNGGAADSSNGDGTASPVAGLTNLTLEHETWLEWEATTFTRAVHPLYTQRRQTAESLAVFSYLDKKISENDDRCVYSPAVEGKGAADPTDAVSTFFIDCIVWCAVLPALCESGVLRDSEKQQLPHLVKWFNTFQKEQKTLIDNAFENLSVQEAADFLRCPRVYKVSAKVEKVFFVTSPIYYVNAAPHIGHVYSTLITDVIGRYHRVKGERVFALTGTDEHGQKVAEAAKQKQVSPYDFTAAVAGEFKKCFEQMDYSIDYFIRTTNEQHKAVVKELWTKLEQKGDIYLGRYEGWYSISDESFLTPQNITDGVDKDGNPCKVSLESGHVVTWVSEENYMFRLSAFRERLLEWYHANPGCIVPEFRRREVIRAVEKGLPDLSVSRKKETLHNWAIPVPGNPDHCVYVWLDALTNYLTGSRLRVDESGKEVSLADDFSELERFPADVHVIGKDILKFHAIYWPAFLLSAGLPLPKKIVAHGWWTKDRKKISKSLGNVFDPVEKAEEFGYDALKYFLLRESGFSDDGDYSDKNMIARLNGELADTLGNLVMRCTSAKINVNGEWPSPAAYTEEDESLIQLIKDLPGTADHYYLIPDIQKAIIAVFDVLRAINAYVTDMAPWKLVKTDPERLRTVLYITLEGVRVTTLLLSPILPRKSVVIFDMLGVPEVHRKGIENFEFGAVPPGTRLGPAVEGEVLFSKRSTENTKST
Briefly: MetRS (T. brucei) enzyme inhibition. It is filed as biochemical.

For another assay, the target named is MetRS (C. parvum) (Cryptosporidium parvum, UniProt Q5CVN0). As to the kind of experiment: MetRS (C. parvum) enzyme inhibition. It is filed as biochemical.
Sequence of MetRS (C. parvum) (Q5CVN0 entry or part of it): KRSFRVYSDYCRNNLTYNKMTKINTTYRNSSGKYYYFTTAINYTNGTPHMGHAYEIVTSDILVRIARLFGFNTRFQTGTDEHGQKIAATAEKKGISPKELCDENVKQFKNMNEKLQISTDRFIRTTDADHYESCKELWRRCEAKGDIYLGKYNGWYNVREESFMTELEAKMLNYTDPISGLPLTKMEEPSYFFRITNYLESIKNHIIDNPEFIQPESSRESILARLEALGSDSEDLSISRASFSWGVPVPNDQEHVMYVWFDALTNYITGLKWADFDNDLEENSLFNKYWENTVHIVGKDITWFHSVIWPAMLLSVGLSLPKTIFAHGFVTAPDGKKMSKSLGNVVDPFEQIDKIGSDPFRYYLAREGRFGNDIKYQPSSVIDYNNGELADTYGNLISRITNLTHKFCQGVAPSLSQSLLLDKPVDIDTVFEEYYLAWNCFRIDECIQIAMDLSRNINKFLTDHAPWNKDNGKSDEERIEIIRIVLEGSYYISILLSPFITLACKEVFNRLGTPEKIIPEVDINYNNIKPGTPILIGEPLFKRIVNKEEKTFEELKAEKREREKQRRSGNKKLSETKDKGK
In a further assay the test system is T. brucei. Briefly: T. brucei growth inhibition. It is filed as cell-based, Trypanosoma brucei. Conditions: read-out: (D) T. brucei EC50.
Assay [2] concerns S. aureus MRSA (ATCC 33591). Briefly: MIC susceptibility testing. It is filed as cell-based, Staphylococcus aureus. The settings on record: MRSA ATCC33591; for MIC: Staphylococcus aureus, read-out: (G) MRSA (ATCC33591) MIC. Put shortly:
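CLSI broth microdilution with two-fold compound dilutions, in triplicate; cells added in medium at 1×10^6 CFUs/mL, DMSO ≤0.5%. Media: MHB for S. aureus, CA-MHB for E. coli and E. faecium, CA-MHB plus 3% laked horse blood for S. pyogenes (5% CO2).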

[3] abbreviates: read-out: (C) MetRS (C. parvum) IC50.

For orientation: EC50 means the midpoint of the concentration-response curve. A word on the MIC: it is the least concentration at which growth counts as inhibited. What is called IC50 is the point on the concentration scale where inhibition reaches its midpoint. For `O=c1n(Cc2nc3ccc(F)nc3[nH]2)cc(Cc2ccc(Cl)cc2Cl)n1C1CCCCC1` [Compound 2071, 3-cyclohexyl-4-[(2,4-dichlorophenyl)methyl]-1-({5-fluoro-1H-imidazo[4,5-b]pyridin-2-yl}methyl)-2,3-dihydro-1H-imidazol-2-one], the EC50 in the assay with C. parvum (Cryptosporidium parvum) was > 2 µM; in the assay with T. cruzi (Trypanosoma cruzi), 0.526 µM. The MIC in assay [1] was > 2.5 µg/mL. Also, the IC50 against MetRS (T. brucei) and at MetRS (C. parvum) (setting [3]) was < 0.04 µM in each case.
Turning to `C#CCn1c(Cc2ccc(Cl)cc2Cl)cn(Cc2nc3ccc(F)nc3[nH]2)c1=O` [Compound 2085, 4-[(2,4-dichlorophenyl)methyl]-1-({5-fluoro-1H-imidazo[4,5-b]pyridin-2-yl}methyl)-3-(prop-2-yn-1-yl)-2,3-dihydro-1H-imidazol-2-one], the EC50 came to 0.834 µM with C. parvum (Cryptosporidium parvum); 0.683 µM in the assay with C. parvum; 0.514 µM in the assay on T. cruzi (Trypanosoma cruzi); 0.00456 µM in the assay on T. brucei (Trypanosoma brucei); 0.00903 µM in the assay on T. brucei. The minimal inhibitory concentration (MIC) in assay [1] was 1.71 µg/mL (≈ 3.97 µM). In addition, the IC50 against MetRS (T. brucei) and at MetRS (C. parvum) (setting [3]) was < 0.04 µM each time.
Turning to `O=c1n(Cc2nc3nc(F)ccc3[nH]2)cc(Cc2ccc(Cl)cc2Cl)n1CCO` [Compound 2086, 4-[(2,4-dichlorophenyl)-methyl]-1-({5-fluoro-1H-imidazo[4,5-b]pyridin-2-yl}methyl)-3-(2-hydroxyethyl)-2,3-dihydro-1H-imidazol-2-one], the values for the MIC in assay [1] and in assay [2] were 0.964 µg/mL (≈ 2.21 µM) and > 2.5 µg/mL, respectively. Also, the EC50 in the assay on T. cruzi (Trypanosoma cruzi) came to 0.552 µM; in the assay on T. brucei (Trypanosoma brucei), 0.00594 µM; in the assay on T. brucei, 0.00764 µM. For the same molecule, the IC50 was < 0.04 µM against MetRS (T. brucei) and 0.0412 µM on MetRS (C. parvum) (setting [3]).
In the case of `COc1ccc(-c2ccc(N)c3nc(Cc4nc5nc(Cl)ccc5[nH]4)cn23)c(Cl)c1` [Compound 2171, 2-({5-chloro-1H-imidazo[4,5-b]pyridin-2-yl}methyl)-5-(2-chloro-4-methoxyphenyl)imidazo[1,2-a]pyridin-8-amine], the values for the minimum inhibitory concentration (MIC) in assay [1] and in assay [2] were 1.16 µg/mL (≈ 2.64 µM) and 1.87 µg/mL (≈ 4.26 µM), respectively. For the same molecule, the values for the concentration giving a half-maximal response (EC50) in the assay with T. cruzi (Trypanosoma cruzi) and in the assay on T. brucei (Trypanosoma brucei) were 0.302 µM and 0.029 µM, respectively. Further, the IC50 on MetRS (T. brucei) is < 0.04 µM; on MetRS (C. parvum) (setting [3]) it was 0.0753 µM.
For the molecule `COc1ccc(-c2ccc(NC(C)=O)c3nc(Cc4nc5nc(F)ccc5[nH]4)cn23)c(Cl)c1` [Compound 2183, N-[5-(2-chloro-4-methoxyphenyl)-2-({5-fluoro-1H-imidazo[4,5-b]pyridin-2-yl}methyl)imidazo[1,2-a]pyridin-8-yl]acetamide], the EC50 in the assay on C. parvum (Cryptosporidium parvum) worked out at 0.629 µM; with T. cruzi (Trypanosoma cruzi), 0.116 µM. Further, the MIC in assay [1] stood at 0.245 µg/mL (≈ 0.527 µM). In addition, the IC50 against MetRS (T. brucei) and at MetRS (C. parvum) (setting [3]) was < 0.04 µM in each case.
Take `Clc1ccc(Cc2cn(Cc3nc4cc(Cl)ccc4[nH]3)cn2)c(Cl)c1` [Compound 2192, 6-chlor0-2-({4-[(2,4-dichlorophenyl)-methyl]-1H-imidazol-1-yl}methyl)-1H-1,3-benzodiazole]: the EC50 was > 2 µM in the assay on C. parvum (Cryptosporidium parvum), 0.516 µM in the assay on T. cruzi (Trypanosoma cruzi) and 0.0852 µM in the assay on T. brucei (Trypanosoma brucei). In addition, the values for the half-maximal inhibitory concentration (IC50) at MetRS (T. brucei) and against MetRS (C. parvum) were < 0.04 µM and 0.114 µM, respectively.
Turning to `NCCn1c(Cc2ccc(Cl)cc2Cl)cn(Cc2nc3ccc(Cl)nc3[nH]2)c1=O` [Compound 2214, 3-(2-aminoethyl)-1-((5-chloro-3H-imidazo[4,5-b]pyridin-2-yl)methyl)-4-(2,4-dichlorobenzyl)-1,3-dihydro-2H-imidazol-2-one], the concentration for a half-maximal effect (EC50) was > 2 µM in the assay on C. parvum (Cryptosporidium parvum), 0.367 µM in the assay with T. cruzi (Trypanosoma cruzi) and 0.00373 µM in the assay with T. brucei (Trypanosoma brucei). The MIC in assay [1] was > 2.5 µg/mL. Besides, the figures for the IC50 at MetRS (T. brucei) and at MetRS (C. parvum) (setting [3]) were < 0.04 µM and 0.0745 µM, respectively.
`O=C(O)Cn1c(C(=O)c2ccc(Cl)cc2Cl)cn(Cc2nc3ccc(Cl)nc3[nH]2)c1=O` [Compound 2216, 2-[3-({5-chloro-1H-imidazo[4,5-b]pyridin-2-yl}methyl)-5-(2,4-dichlorobenzoyl)-2-oxo-2,3-dihydro-1H-imidazol-1-yl]acetic acid]: the EC50 in the assay on C. parvum (Cryptosporidium parvum) is > 2 µM; in the assay on T. cruzi (Trypanosoma cruzi), > 5 µM; in the assay on T. brucei (Trypanosoma brucei), 0.287 µM. In addition, the IC50 at MetRS (T. brucei) is < 0.04 µM; on MetRS (C. parvum) (setting [3]), 0.0532 µM.
Take `COc1ccc(-c2cccc3nn(Cc4nc5nc(Cl)ccc5[nH]4)cc23)c(Cl)c1` [Compound 2245, 2-({5-chloro-1H-imidazo[4,5-b]pyridin-2-yl}methyl)-4-(2-chloro-4-methoxyphenyl)-2H-indazole]: the EC50 with C. parvum (Cryptosporidium parvum) is > 2 µM; in the assay on T. brucei (Trypanosoma brucei), 0.0254 µM; in the assay on T. brucei it was 0.0173 µM. Besides, in assay [1], the “(F) S. aureus (ATCC 29213) MIC” value was 0.0526, μg/ml and 0.0902 μg/ml. Besides, the minimum inhibitory concentration (MIC) in assay [1] was 0.0924 µg/mL (≈ 0.218 µM); in assay [2] it was 0.0378 µg/mL (≈ 0.0891 µM). In addition, the 50% inhibitory concentration (IC50) on MetRS (C. parvum) (setting [3]) was < 0.04 µM.
`COc1cc(Cl)c(-c2nccc3nc(Cc4nc5nc(Cl)ccc5[nH]4)cn23)cc1OC` [Compound 2246, 2-({5-chloro-1H-imidazo[4,5-b]pyridin-2-yl}methyl)-5-(2-chloro-4,5-dimethoxyphenyl)imidazo[1,2-c]pyrimidine]: the half-maximal effective concentration (EC50) with C. parvum (Cryptosporidium parvum) was determined as 0.359 µM; with C. parvum, 0.3 µM; in the assay on T. cruzi (Trypanosoma cruzi), 0.0179 µM; in the assay with T. cruzi, 0.0206 µM; in the assay on T. brucei (Trypanosoma brucei), 0.00668 µM; in the assay on T. brucei, 0.00568 µM. Also, the “(F) S. aureus (ATCC 29213) MIC” value in assay [1] stood at 0.497 µg/mL. Also, the minimal inhibitory concentration (MIC) in assay [1] was determined as 0.277 µg/mL (≈ 0.608 µM); in assay [2] it was 0.115 µg/mL (≈ 0.253 µM). In addition, at MetRS (C. parvum) (setting [3]), the IC50 amounted to 0.0556 µM.
Take `COc1ccc(-c2cccc3c2CN(Cc2nc4nc(C(F)(F)F)nc(N)c4[nH]2)C3=O)c(Cl)c1` [Compound 2252, 2-((6-amin0-2-(trifluoromethyl)-7H-purin-8-yl)methyl)-4-(2-chloro-4-methoxyphenyl)isoindolin-1-one]: in assay [2], the MIC was > 2 µg/mL. For the same molecule, the half-maximal effective concentration (EC50) in the assay with T. cruzi (Trypanosoma cruzi) is 0.63 µM; in the assay with T. brucei (Trypanosoma brucei) it was 0.268 µM. Further, the IC50 at MetRS (C. parvum) (setting [3]) turned out to be 0.431 µM.
On to `COc1ccc(-c2nccn3c(=O)n(Cc4nc5c(Cl)c(Cl)ccc5[nH]4)cc23)c(Cl)c1` [Compound 2254, 8-(2-chloro-4-methoxyphenyl)-2-[(6,7-dichloro-1H-1,3-benzodiazol-2-yl)methyl]-2H,3H-imidazo[1,5-a]pyrazin-3-one], for which the MIC in assay [2] is > 2 µg/mL. Besides, the 50% effective concentration (EC50) with T. brucei (Trypanosoma brucei) was 0.168 µM. The IC50 on MetRS (C. parvum) (setting [3]) turned out to be 0.138 µM.
In the case of `COc1cc(Cl)c(-c2nccc3nc(Cc4nc5c(Cl)c(Cl)ccc5[nH]4)cn23)cc1OC` [Compound 2255, 6,7-dichlor0-2-{[5-(2-chloro-4,5-dimethoxyphenyl)imidazo[1,2-c]pyrimidin-2-yl]methyl}-1H-1,3-benzodiazole], the EC50 was > 2 µM in the assay on C. parvum (Cryptosporidium parvum), 0.165 µM in the assay with T. cruzi (Trypanosoma cruzi) and 0.0715 µM with T. brucei (Trypanosoma brucei). The “(F) S. aureus (ATCC 29213) MIC” value in assay [1] is 2.93 µg/mL. Also, the minimum inhibitory concentration (MIC) in assay [1] and in assay [2] was 1.82 µg/mL (≈ 3.72 µM) throughout. At MetRS (C. parvum) (setting [3]), the IC50 is 0.277 µM.
For `COc1ccc(-c2nccc3nc(Cc4nc5ccc(Cl)nc5[nH]4)cn23)c(Cl)c1` [Compound 2256, 2-({5-chloro-1H-imidazo[4,5-b]pyridin-2-yl}methyl)-5-(2-chloro-4-methoxyphenyl)imidazo[1,2-c]pyrimidine], the EC50 in the assay on C. parvum (Cryptosporidium parvum) was determined as 1.94 µM; in the assay on T. cruzi (Trypanosoma cruzi) it was 0.0765 µM; with T. cruzi, 0.0772 µM; with T. brucei (Trypanosoma brucei), 0.0123 µM; in the assay on T. brucei, 0.0203 µM. Further, the “(G) MRSA (ATCC33591) MIC” value in assay [2] turned out to be 1.59 µg/mL. The MIC in assay [2] was > 2 µg/mL.
Consider `COc1ccc(Cc2cn(Cc3nc4nc(Br)ccc4[nH]3)c(=O)n2CC(F)F)c(Cl)c1` [Compound 2257, 1-({5-bromo-1H-imidazo[4,5-b]pyridin-2-yl}methyl)-4-[(2-chloro-4-methoxyphenyl)methyl]-3-(2,2-difluoroethyl)-2,3-dihydro-1H-imidazol-2-one], for which the EC50 in the assay on C. parvum (Cryptosporidium parvum) was 0.31 µM; in the assay on C. parvum it was 0.219 µM; in the assay with T. cruzi (Trypanosoma cruzi), 0.00803 µM; in the assay on T. cruzi it was 0.00817 µM. Moreover, the minimum inhibitory concentration (MIC) in assay [2] turned out to be 0.876 µg/mL (≈ 1.71 µM).

The values are drawn from patent publication US11584744B2 (UNIVERSITY OF WASHINGTON, priority 2017, dated 2023).
